Reference: US20190169669A1, “[…] OF […] IDENTIFICATION OF NATURAL LIGAND OF SAID RECEPTOR AND USES THEREOF” (Institut National de la Recherche Agronomique, priority 2016, published 2019)

Test system: SlitOR5
Test: Single-sensillum recordings on Drosophila at1 olfactory neurons expressing SlitOR5
Format: cell-based, Spodoptera littoralis
Details: for significance of response versus solvent alone: n=7, Kruskal-Wallis ANOVA with Dunn's post-hoc test
Experimental: SlitOR5 can be heterologously expressed in vivo in an organism, for example Drosophila melanogaster, using transgenesis (e.g. the Gal4-UAS system in D. melanogaster). SlitOR5 can be expressed in a large part of the endogenous olfactory sensory neurons (OSNs) of the organism (for instance using the ORco promotor) or in a given subset of the OSN population. The modified responses of the antenna or of the targeted OSNs are then recorded using, respectively, electroantennography (EAG) and single sensillum recording (SSR). Some D. melanogaster mutant lines may be used to replace a native Drosophila OR with SlitOR5, such as the ab3A mutant line which allows for expression of SlitOR5 in ORNs usually expressing DmelOR22a (Hallem et al., Cell 2004, 117(7):965-979), and the DmelOr67dGAL4 mutant knock-in line, which allows for expression of SlitOR5 in place of DmelOR67d, in the unique OSN of the atl Drosophila sensilla (Kurtovic et al. Nature 2007, 446(7135):542-546). The candidate agent activity is measured as the antenna depolarization (EAG) or the number of action potential (SSR) generated by stimulation of an air flow containing the candidate agent (typically from 0.1 μg to 100 μg of the candidate agent loaded in the stimulation cartridge). Depolarization and action potential number are compared, respectively, to depolarization and action potential number generated by the agent solvent alone.
The transformant UAS-SlitOR5 balanced fly line was generated by BestGene Inc. (Chino Hills, Calif., USA), using the PhiC31 integrase system. Briefly, recombinant pUAST.attB-SlitOR5 plasmids were injected into embryos of a D. melanogaster line containing an attP insertion site within the second chromosome (genotype y1 M{vas-int.Dm}ZH-2A w*; M{3×P3-RFP.attP′}ZH-51C), leading to non-random integration. To drive expression of SlitOR5 in neurons housed in atl sensilla, the transformant UAS-SlitOR5 line was crossed to a line carrying the mutant knock-in allele Or67d^GAL4 (kindly provided by Dr. Barry Dickson, IMP, Vienna, Austria) to generate a double homozygous line w;UAS-SlitOr5;Or67d^GAL4. Flies were reared on standard cornmeal-yeast-agar medium and kept in a climate- and light-controlled environment (25° C., 12:12 light:dark cycle). The presence of the UAS-SlitO5 transgene was verified by PCR on genomic DNA extracted from two flies, and the expression of SlitOR5 in fly antennae was verified by RT-PCR on total RNA extracted from >100 pairs of antennae.
The response spectrum of SlitOR5 was tested by means of single-sensillum recordings on flies expressing the SlitOR5 transgene in atl neurons, instead of the endogenous receptor DmelOR67d. Two- to 10-day-old male flies were restrained in a plastic pipette tip with only the head protruding from the narrow end. The pipette tip was fixed with dental wax on a microscope glass slide with the ventral side of the fly facing upward. Then, the antenna was gently placed on a piece of glass slide and maintained by placing a glass capillary between the 2nd and 3rd antennal segments. Afterwards, the slides were placed under a light microscope (BX51WI, Olympus, Tokyo, Japan) equipped with a 100× magnification objective. Desiccation of the flies was avoided thanks to a constant 1.5 L·min^−1 flux of charcoal-filtered and humidified air, delivered through a glass tube of a 7 mm diameter, which terminated ca. 1.5 cm from the antenna.
Stimulation cartridges were built by placing a 1 cm^2 filter paper in the large opening end of a Pasteur pipette and dropping 10 μl of an odorant solution onto the paper before closing the pipette with a 1 mL plastic pipette tip. A screening panel of 26 pheromone compounds (see Table 1 for detail) were used at a 1 μg/μl dilution in hexane (10 μg deposited on the filter paper). Pipettes with filter papers containing 10 μL of solvent were used as controls. […]

[1] = response spectrum screen, 10 μg loaded in the stimulus cartridge

Compound | significance of response versus solvent alone [1] | response of at1 neurons (firing rate), dose-response (dose 1 μg loaded on the stimulus cartridge, n=5) [spikes·s^−1] | response of at1 neurons (firing rate), dose-response (dose 10 μg loaded on the stimulus cartridge, n=5) [spikes·s^−1] | mean net response (firing rate) of SlitOR5-expressing neurons (response spectrum screen, 10 μg loaded in the stimulus cartridge, 500 ms air pulse, n=7, w;UAS-SlitOr5;Or67d^GAL4 flies) [spikes·s^−1] | response of at1 neurons versus solvent alone, dose-response (the two lower doses (dose range 0.01 μg to 10 μg), n=5)
CC/C=C\C=C/CCCCCCCCOC(C)=O [Z9,Z11-14:OAc, (Z,Z)-9,11-tetradecadienyl acetate] | not significant | – | – | – | –
CC/C=C\CCCCCCCCOC(C)=O [Z9-12:OAc, (Z)-9-dodecenyl acetate] | not significant | – | – | – | –
CC/C=C/C=C\CCCCCCCCOC(C)=O [Z9,E11-14:OAc, (Z,E)-9,11-tetradecadienyl acetate] | significant response | 15 | 43 | 75 | did not significantly differ
CCCC/C=C\CCCCCCCCOC(C)=O [Z9-14:OAc, (Z)-9-tetradecenyl acetate] | not significant | – | – | – | –
